Test results as given in patent publication US9657071B2, “IgE peptide vaccine” (NIPPON ZENYAKU KOGYO CO., LTD., priority 2012, dated 2017).

Experiments:
[1] = system: human IgE; test: Treatment experiment, dogs artificially sensitized with Dermatophagoides farinae: IgG antibody against human IgE (ELISA); type: in vivo; conditions: beagles artificially sensitized with Dermatophagoides farinae, s.c. 1 mg five times
Protocol: Human IgE (Athens Research And Technology, Inc.; IgE, human Myeloma Plasma) was prepared at 1 μg/mL in an immobilization buffer (0.05 M carbonate buffer, pH 9.6), then added at a concentration of 100 μL/well to an ELISA plate, and left overnight at 4° C. The immobilization plate was washed once with PBS-T (0.05%). A blocking solution (4× Block Ace, Snow Brand Milk Products Co., Ltd.; UK-B80) was added thereto at a concentration of 200 μL/well. The plate was blocked by incubation at 37° C. for 1.5 hours. The serum was diluted 1000-fold with a diluent (PBS-T:Block Ace=9:1) and used. The plate was reacted with the serum at 37° C. for 1.5 hours and washed three times with PBS-T (0.05%). An anti-dog IgG antibody (Sheep anti-Dog IgG HRP, Bethyl Laboratories, Inc.; A40-118P) was diluted 2000-fold with a diluent and added thereto as a secondary antibody at a concentration of 100 μL/well. After reaction at 37° C. for 1.5 hours, the plate was washed three times with PBS-T (0.05%). […] Then, the measurement was performed using a plate reader (Bio-Rad Laboratories, Inc.; model 680) (dual: measurement: 450 nm, control: 570 nm). […]
Evaluation: serum was collected, and an IgG antibody against human IgE was assayed by ELISA. […] The IgE antibody against Dermatophagoides farinae was evaluated by ELISA. […]

[2] = system: Dermatophagoides farinae antigen-specific IgE; test: Treatment experiment, artificially sensitized dogs: Dermatophagoides farinae antigen-specific IgE (ELISA); type: in vivo, dog; conditions: artificially sensitized beagles, s.c. 1 mg five times; one individual (04-95) of 4
Protocol: Dog: 8 artificially sensitized beagles (1 to 8 years old; 4 males and 4 females) were used. The ages and numbers of these 8 dogs were as follows:
Artificial sensitization: 400 μg of a Dermatophagoides farinae antigen (GREER) and 1 mg of an alum adjuvant (LSL) were subcutaneously administered at a 2-week interval, and IgE against the Dermatophagoides farinae antigen was confirmed by ELISA.
Grouping: on the basis of the ELISA results of IgE, the dogs were divided into 2 groups each involving 4 individuals uniformly distributed in terms of their IgE levels and ages.
Vaccine: the M4-7-11 peptide was used alone without being conjugated.
Administration method: 1 mg (500 μL of 2 mg/mL) per dose was subcutaneously administered five times at 2-week intervals.
Evaluation: serum was collected, and an IgG antibody against human IgE was assayed by ELISA. […] The IgE antibody against Dermatophagoides farinae was evaluated by ELISA.
The Dermatophagoides farinae antigen was prepared at 5 μg/mL in an immobilization buffer (0.05 M carbonate buffer, pH 9.6), then added at a concentration of 100 μL/well to an ELISA plate, and left overnight at 4° C. […] Then, the measurement was performed using a plate reader (Bio-Rad Laboratories, Inc.; model 680) (dual: measurement: 450 nm, control: 570 nm).

[3] = system: cat IgE; test: Reactivity of serum of peptide-immunized rabbit with cat IgE recombinant CH3 (ELISA); type: in vivo; conditions: 500 μg peptide + complete adjuvant s.c.
Protocol: (§1) 2 mL of the 250 μg/mL peptide (a total of 500 μg) used in Example 2 was mixed with an equal amount of a complete adjuvant (a total of 4 mL). Each rabbit was immunized with this mixture by the subcutaneous administration (amount of the peptide: 500 μg) at day 0 and weeks 2, 4, 6, and 8. Blood was collected 5 weeks after the week-8 administration (week 13 counted from day 0). Booster immunization was performed at week 14 counted from day 0, and blood was further collected 2 weeks thereafter (week 16 counted from day 0). Antibody titers in the collected blood were measured by ELISA. The serum of a rabbit that received no peptide was used as a control.
(§2) ELISA was performed by the following method: each […] recombinant CH3 solution of dog IgE, human IgE, mouse IgE, dog IgG, and cat IgE was immobilized at a concentration of 100 μL/well (100 ng/well) to a plate. The serum collected from the immunized rabbit was used (×200 to ×102400) as a primary antibody. An enzyme-labeled anti-rabbit IgG antibody (Zymed Laboratories Inc.) was used as a secondary antibody.

[4] = system: dog IgG; test: Reactivity of serum of peptide-immunized rabbit with dog IgG (ELISA); type: in vivo; conditions: 500 μg peptide + complete adjuvant s.c.
Protocol: as §1, §2

Row | Sequence | level of the IgG antibody against IgE [1] | serum concentration of Dermatophagoides farinae antigen-specific IgE [2] | response of immobilized cat IgE to peptide-administered rabbit serum [3] | response of immobilized dog IgG to peptide-administered rabbit serum [4]
1 | KKTSVSASQWYTKHHNNATT (listed as Mus musculus) [M4-7-11] | confirmed to elevate | reduction in the serum concentration of IgE was confirmed in one individual |  | 
2 | QEKKTSVSASQWYTKHHNNATTSIT (listed as Mus musculus) [MOUSE CH3-4-17-11] |  |  | responded | responded to neither
